Assay results as given in US8354381B2, “Peptide compositions for oral care systems” (E I du Pont de Nemours and Company, priority 2009, dated 2013).
Where no end group is shown, it is not given here. The star is where a group is joined. Biotin = O=C1N[C@H]2[C@H](CS[C@H]2CCCCC(=O)*)N1

Columns and labels:
[1] = system: pellicle coated bovine enamel; assay: Phage ELISA of brushed 8 hr pellicle candidates, screened with 30 min in vivo pellicle (Example 8); type: binding, human; conditions: 10^11 pfu phage, 30 min in vivo pellicle on bovine enamel, normalized to DenP3
Description: (§1) A total of 18 selected phage candidates were used in a phage ELISA Experiment. Purified phage lysates were used for binding to pellicle coated bovine enamel using an anti-M13 phage antibody conjugated to horseradish-peroxidase, followed by the addition of chromogenic agent TMB. The plates were read at A450 nm.
The wells were rinsed 2 times with wash buffer consisting of PBST. The wells were filled with 1 mL of 10^11 pfu purified phage stock which was prepared by diluting in blocking buffer. […] The non-binding phage was removed by washing 5 times with PBST. Then, 500 μL of horseradish peroxidase/anti-M13 antibody conjugate (Amersham USA, Piscataway, N.J.), diluted 1:500 in the blocking buffer, was added and incubated for 45 min at room temperature. The conjugate solution was removed and was washed 5 times with PBST.

[2] = Phage ELISA, bovine enamel-binding assay; conditions: over 10^10 pfu phage, unpolished bovine enamel, A450
Description: A total of 11 selected phage candidates (Example 3) was used in a phage ELISA experiment. Purified phage lysates were used for binding to the enamel blocks using an anti-M13 phage antibody conjugated to horseradish-peroxidase, followed by the addition of chromogenic agent TMB. The plates were read at A450 nm.
For each phage candidate to be tested, the polished and unpolished enamel blocks were incubated for 1 h at room temperature with 200 μL of blocking buffer, consisting of 2% non-fat dry milk (Schleicher & Schuell, Inc.) in TBS. […] The tube was rinsed 6 times with wash buffer consisting of TBST-0.05%. The wells were filled with 200 μL of TBST-0.5% containing 1 mg/mL BSA and then 10 μL (over 10^10 pfu) of purified phage stock was added. The samples were incubated at room temperature for 60 min with slow shaking. The non-binding phage was removed by washing 6 times with TBST-0.5%. […] The conjugate solution was removed and was washed 6 times with TBST-0.5%. […] BoEn P means bovine polished enamel and BoEn means bovine enamel.

[3] = Peptide-mediated deposition of Co-NTA beads on bovine enamel, SEM; type: binding; conditions: 20 μM peptide; for Particles per um^2 at 5000X: then Co-NTA TALON beads, SEM at 5000X
Source text: Bovine enamel incisors were obtained from SE Dental (Baton Rouge, La.). Teeth were sectioned and cut into enamel slabs approx. 5 mm on each side using a DREMEL® rotary (Robert Bosch LLC, Farmington Hills, Mich.) saw with a diamond blade. The enamel slabs were cleaned and embedded in a well plate contained molding material so as to only expose the enamel surface in the well.
Polystyrene beads with cobalt-NTA coating (DYNABEADS® TALON®) were obtained from Invitrogen (item#101.02D) as a slurry of 40 mg/mL. The slurry (50 μL; 2 mg beads) was resuspended and washed with 700 μL of binding buffer (50 mM sodium phosphate, pH 8.0, 300 mM NaCI, 0.01% TWEEN® 20) in preparation for His6 binding.
Peptides were dissolved in phosphate buffered saline (Pierce, pH 7.2) at a concentration of 20 μM. Peptide solution (500 μL) was placed in each well containing an enamel slab. Enamel slabs exposed to only PBS in this step were used as a control. Samples were incubated with peptide solution with gentle agitation for 30 min. The peptide solution and PBS were removed from the well plate and each well was rinsed 3 times with repeated additions of PBS. TALON® beads (50 μL) were added to each well and incubated with gentle agitation for 30 min. The TALON® solution was removed and the samples were washed three times with the same binding buffer.
Each enamel sample was removed from the well plate and rinsed again with buffer. […] The enamel slabs were further examined by Electron Microscopy (Hitachi TM-1000 Tabletop SEM Microscope) at 1000×, 2500× and 5000× magnification. […] Little to no beads were found on the no peptide control. […]

[4] = system: pellicle coated enamel substrates; conditions: 20 μM biotinylated peptide, streptavidin-HRP, normalized to DenP03, three replicates
Description: A total of 20 synthetic peptides were manufactured using sequences obtained from Table 6. Peptides were obtained from SynBioSci Corp. (Livermore, Calif.) and included an additional sequence (SSRP; SEQ ID NO: 118) at the N-terminus and biotin labeled lysine at the C-terminus.
Enamel substrates were cut into approximately 7 mm squares and mounted on wax mounting for incubation in the mouth for 30 min to form a pellicle coated surface. The pellicle coated enamel substrates were removed from the wax backing and placed in well plates with the pellicle surface exposed as in Example 5. Each pellicle coated substrate was incubated for 1 h at room temperature (˜22° C.) with 1 mL of blocking buffer, consisting of 1 mg/mL BSA in PBST (Pierce BUPH™ #28372 with 0.1% TWEEN® 20). The blocking buffer was removed by aspirating the liquid out of each well. The tube was rinsed 2 times with wash buffer consisting of PBST. The wells were filled with 500 μL of 20 μM peptide solution which was prepared by diluting in blocking buffer. The samples were incubated for 30 min with slow shaking at 37° C. The non-binding peptide was removed by washing 6 times with PBST. Then, 500 μL of horseradish peroxidase/streptavidin conjugate (Pierce #22127), diluted 1:2000 in PBST, was added and incubated for 1 h at room temperature (˜22° C.). The conjugate solution was removed and was washed 4 times with PBST.
Each enamel substrate was removed from the well and washed again in a 15-mL test tube with 10 mL of PBST. Each enamel substrate was then mounted in a clean well plate with only the enamel surface exposed. A 1:1 solution of TMB substrate and H2O2 (200 μL) was added to each well and the color was allowed to develop for between 10 to 20 min, typically for 15 min, at room temperature (˜22° C.). Then, 100 μL of solution from each well was transferred to a 96 well reading plate containing stop solution (100 μL of 2 M H2SO4) in each well. The A450 was measured using a microplate spectrophotometer (Molecular Devices, Sunnyvale, Calif.). […] Each sequence was tested with three replicate enamel coated pellicle substrates.

[5] = system: pellicle coated bovine enamel; assay: Phage ELISA on pellicle coated bovine enamel (Example 6); type: binding, human; conditions: 10^11 pfu phage, 30 min in vivo pellicle on bovine enamel, normalized to an internal control
Description: as §1, with “29” for “18”, “candidates from Table 5” for “candidates”, “in” for “in a”, “Experiment to determine binding affinity and coverage of each phage on pellicle substrates.” for “Experiment.”
The wells were filled with 1 mL of 10^11 pfu purified phage stock which was prepared by diluting in blocking buffer. […] The non-binding phage was removed by washing 5 times with PBST. […] The conjugate solution was removed and was washed 3 times with PBST.

THGNKHQSWTYPSEINHKNY (Synthetic oral-surface binding peptide) [DenP108]
O.D.450 (normalized) [1]: 1.149

GVHQYSRPTVPSYLWTSGQH (Synthetic oral-surface binding peptide) [DenP103]
O.D.450 (normalized) [1]: 0.879

SDCTAGLVPPLCAT (Synthetic oral-surface binding peptide) [BoEn 7]
O.D.450 [2]: 0.892

HDHLSWWGQFDRQNLL (Synthetic oral-surface binding peptide) [DenP116]
O.D.450 (normalized) [1]: 1.055

PHMASMTGGQQMGSYSETPNDQKPNPHYKVSGTKGPEEAAKKEEAAKKPAYSETPNDQKPNPHYKVSGTKGSGGGGSGSGGGGSLNSMSDKHHGHQNTATRNQHGGGLNSMSDKHHGHQNTATRNQHGGHHHHHH [DE008]
Particles per um^2 at 5000X [3]: 0.31 Particles per um^2

WHEPHQFSGENTDYSSSMGT (Synthetic oral-surface binding peptide) [DenP109]
O.D.450 (normalized) [1]: 0.716

SSRPVNPNWVETQALHQPPGNTK(Biotin) [DenP20-A]
O.D.450 (normalized) [4]: 0.590

NQQMKLVPQHWHRAQP (Synthetic oral-surface binding peptide) [DenP119]
O.D.450 (normalized) [1]: 1.051

TTYHYKNIYQESYQQRNPAV (Synthetic oral-surface binding peptide) [DenP3]
O.D.450 (normalized) [1]: 1.000 | O.D.450 (normalized) [5]: 2.495

SSRPELDHDSRHYMNGLQRKVTK(Biotin) [DenP15-A]
O.D.450 (normalized) [4]: 0.460

SSRPYLLPKDQTTAPQVTPIVQHKK(Biotin) [DenP5-A]
O.D.450 (normalized) [4]: 0.462

SFSWHRGDWELGHQSKTMGM (Synthetic oral-surface binding peptide) [DenP106]
O.D.450 (normalized) [1]: 1.524

EFYPFAEVPPEKSGIGRQVF (Synthetic oral-surface binding peptide) [DenP102]
O.D.450 (normalized) [1]: 0.520

QFNQTSHSFMHGTSGYVPGK (Synthetic oral-surface binding peptide) [DenP105]
O.D.450 (normalized) [1]: 0.470

YSETPNDQKPNPHYKVSGTK (Synthetic oral-surface binding peptide) [BoEn 10]
O.D.450 [2]: 3.942

DGYKLQTSLDWQMWNP (Synthetic oral-surface binding peptide) [DenP111]
O.D.450 (normalized) [1]: 1.051

NLHSPWPSHAAHHWST (Synthetic oral-surface binding peptide) [DenP118]
O.D.450 (normalized) [1]: 0.641

FPSKWYNHHRHITGHV (Synthetic oral-surface binding peptide) [DenP112]
O.D.450 (normalized) [1]: 0.413

SSRPAPPTYQTASYPHNLPSKRKMK(Biotin) [DenP28-A]
O.D.450 (normalized) [4]: 0.811

SSRPFDGIGLGTATRHQNRK(Biotin) [DenP12-A]
O.D.450 (normalized) [4]: 0.475

GGMGALESYRQWNHLA (Synthetic oral-surface binding peptide) [DenP113]
O.D.450 (normalized) [1]: 1.348

LNDQRKPGPPTMPTHSPAVG (Synthetic oral-surface binding peptide) [BoEn 5]
O.D.450 [2]: 0.944

GYGQYVSQQTWAHSNK (Synthetic oral-surface binding peptide) [DenP115]
O.D.450 (normalized) [1]: 0.501

MPGHQESIKVQNWNRV (Synthetic oral-surface binding peptide) [DenP117]
O.D.450 (normalized) [1]: 0.433

AANPHTEWDRDAFQLAMPPK (Synthetic oral-surface binding peptide) [BoEn 1]
O.D.450 [2]: 1.402

NTCATSPNSYTCSN (Synthetic oral-surface binding peptide) [BoEn 6]
O.D.450 [2]: 2.38

SSRPIYPNESMSTSNVRGPYHPK(Biotin) [DenP22-A]
O.D.450 (normalized) [4]: 0.354

AIEYQHSATTPWTMRTRLPP (Synthetic oral-surface binding peptide) [DenP101]
O.D.450 (normalized) [1]: 0.467

GYQPHYVDHTIGWQPMIRPN (Synthetic oral-surface binding peptide) [DenP104]
O.D.450 (normalized) [1]: 0.790

SMWHDITKRYRNPSEMVSAY (Synthetic oral-surface binding peptide) [DenP107]
O.D.450 (normalized) [1]: 0.726

GINKGQRPPWESWHEN (Synthetic oral-surface binding peptide) [DenP114]
O.D.450 (normalized) [1]: 0.703

SSRPVEPATKNMREARSSTQMRRIK(Biotin) [DenP4-A]
O.D.450 (normalized) [4]: 0.803

SSRPQVPDYLSPTHQKKAFLEIPTK(Biotin) [DenP29-A]
O.D.450 (normalized) [4]: 0.468

VGTMKQHPTTTQPPRVSATN (Synthetic oral-surface binding peptide) [BoEn 9]
O.D.450 [2]: 0.568

SSRPSEARARTFNDHTTPMPIIK(Biotin) [DenP14-A]
O.D.450 (normalized) [4]: 0.269

B1: PGSGGGGSPYSETPNDQKPNPHYKVSGTKGPEPEPEPEPIPEPPKEAPVVIEKPKPKPKPKPKPPAYSETPNDQKPNPHYKVSGTKGPGGHHHHHH (peptide)
chain: PGSGGGGSPYSETPNDQKPNPHYKVSGTKGPEPEPEPEPIPEPPKEAPVVIEKPKPKPKPKPKPPAYSETPNDQKPNPHYKVSGTKGPGGHHHHHH
modifications: Synthetic peptide composition
Particles per um^2 at 5000X [3]: 0.39 Particles per um^2

B2: PGSGGGGSPYSETPNDQKPNPHYKVSGTKGPEEAAKKEEAAKKPAYSETPNDQKPNPHYKVSGTKGPGGHHHHHH (peptide)
chain: PGSGGGGSPYSETPNDQKPNPHYKVSGTKGPEEAAKKEEAAKKPAYSETPNDQKPNPHYKVSGTKGPGGHHHHHH
modifications: Synthetic peptide composition
Bead coverage by electron microscopy (in words) ([3]; Co-NTA beads, SEM 1000×, 2500×, 5000×): bead binding at a lower degree than the other samples | Particles per um^2 at 5000X [3]: 0.17 Particles per um^2
